Reference: patent EP2417971A1, “Clomiphene for use in increasing the chances of pregnancy of women having a low ovarian reserve” (Nitzschke, Markus, priority 2010, dated 2012)
“And” between values parts separate entries of the source, which are not always exact repeats. Identical values can stand only once. Counter-ions that a name gives are not always drawn.

Legend:
[1] = test system: women with low ovarian reserve; test: Case study: Clomiphene citrate from day 6 of the cycle to avoid pathological premature LH rise, followed by IVF; format: in vivo, human
Experimental: Women with low ovarian reserve take 50 mg oral Clomiphene Citrate every second day or 25 mg each day after the 6th day of the menstrual cycle until the follicle has reached a desired size of 18-20 mm. Subsequently ovulation is artificially triggered by the administration of GnRH (Gonadotropin releasing hormone) analogs, which is preferred, or human chorionic gonadotropin (HCG), 36-40 h after the administration of the ovulation inducing agent, the women had sexual intercourse. Alternatively, the ovum was obtained after 36 h and was fertilized in vitro in the lab.
A nulliparous person with 6 years of infertility had regular short cycles of 23 days. When they were younger, they had longer cycles of up to 29 days, but starting, their cycles became gradually shorter. […] When a vaginal ultrasound scan was performed that day, a follicle of 14 mm on the left ovary was found. […] Their spouse's semen analysis was normal. They had failed six cycles of gonadotrophins-IUI (intra-uterine inseminations) and 4 IVF attempts. The last two cycles had to be cancelled due to low response in a GnRH antagonist protocol with FSH injections of up to 450 IU per day. On day 7 of their cycle a hormonal assay and vaginal ultrasound scan were performed. […] The women came back two days later. The follicle was gone and an oral contraceptive pill (OCP) for 10 days was started in order to prevent follicle growth during luteal phase. Five days after the last OCP, menstrual bleeding started. No dominant follicle could be seen, serum estradiol was 32 pg/mL and FSH 14 IU/L.
The person was again examined on day 9 of their cycle. […] Since oocytes ovulated from follicles smaller than 16 mm are often of a poor quality and do seldom produce a pregnancy, it was refrained from trying to retrieve the egg this time. The person ovulated the next day.
The person was examined again on day 6 of their next cycle. They had 2 small follicles of 12mm and 11mm on their left ovary. Serum estradiol was 113 pg/mL, FSH 7.7 IU/L and LH 5.6 IU/L. In order to avoid another pathological premature LH rise on a small follicle this cycle, the person was treated with small doses of Clomiphene citrate, i.e. 50mg Clomiphene citrate on day 6, 8 and 10 of the cycle. On day 11 two follicles on the left ovarian was found with sizes of 19mm and 15mm. Serum estradiol was 621 pg/mL and LH […]. Ovulation induction with 0.2mg triptorelix was performed on the evening of the next day and an oocyte was retrieved 36 hours later. Two mature eggs could be retrieved, but only one oocyte could be fertilized by IVF. Vaginal progesterone treatment was started the day of the egg retrieval. The embryo was transferred at day 2. Two weeks later the pregnancy test was positive.

endometrium = test system: endometrium; set-up: species or system human; conditions: in vivo
Text: Teramoto has therefore used Clomiphene, inter alia, to control the ovulation process in the course of an in vitro fertilization (IVF). To make use of both the stimulating and the inhibiting effect of Clomiphene, Teramoto et al had to administer Clomiphene right at the beginning of the menstrual cycle until the day of induction of ovulation, which is usually between the 10th and 12th day of said cycle. The stimulating effect occurs prior to the 6th cycle day, before a dominant follicle is selected, whereas the inhibiting effect starts on day six or seven after selection of the dominant follicle. However, as we observed, if Clomiphene is administered in the described manner, the growth of the endometrium is inhibited at the same time due to the anti-estrogenic effect of Clomiphene (blocking of the estrogen receptors) and thus the embryos should not be transferred in the same cycle, because implantation success rate is low. In order to increase the implantation success rate, the resulting embryos should be frozen and transferred in the next cycle where no Clomiphene medication is conducted.

| SMILES | oocytes fertilized by IVF ([1]; of the two mature eggs retrieved) | follicle size ([1]; person, 50mg Clomiphene citrate on day 6, 8 and 10 of the cycle, day 11, two follicles on the left ovary (12mm and 11mm on day 6)) | Serum estradiol ([1]; person, 50mg on day 6, 8 and 10 of the cycle, measured on day 11 (113 pg/mL on day 6)) [pg/mL] | LH ([1]; person, 50mg on day 6, 8 and 10 of the cycle, measured on day 11 (5.6 IU/L on day 6)) [IU/L] | mature eggs retrieved ([1]; retrieval 36 hours after ovulation induction with 0.2mg triptorelix on the evening of day 12) | pregnancy test ([1]; two weeks after embryo transfer at day 2, same cycle) | growth of the endometrium (endometrium) |
| --- | --- | --- | --- | --- | --- | --- | --- |
| CCN(CC)CCOc1ccc(C(=C(Cl)c2ccccc2)c2ccccc2)cc1 [Clomiphene citrate] | only one | 19 mm and 15 mm | 621 | 7.4 | Two | positive | – |
| CCN(CC)CCOc1ccc(C(=C(Cl)c2ccccc2)c2ccccc2)cc1 [Clomiphene] | – | – | – | – | – | – | inhibited |
